Results reported in US12006314B2, “Anti-cancer nuclear hormone receptor-targeting compounds” (Nuvation Bio Inc., priority 2021, dated 2024).
Substitutions are numbered along the chain they refer to.

Experiments:
[1] = target: T1, full-length androgen receptor (HEK293 cells stably expressing) (Homo sapiens, UniProt P10275); assay: AR antagonism assay; type: cell-based; details: testosterone 1 nM, 20 h, Steady-glo
T1 construct: HEK293 cells stably expressing the full-length androgen receptor were seeded; expressed in transfected cells
T1 sequence (P10275 1-920): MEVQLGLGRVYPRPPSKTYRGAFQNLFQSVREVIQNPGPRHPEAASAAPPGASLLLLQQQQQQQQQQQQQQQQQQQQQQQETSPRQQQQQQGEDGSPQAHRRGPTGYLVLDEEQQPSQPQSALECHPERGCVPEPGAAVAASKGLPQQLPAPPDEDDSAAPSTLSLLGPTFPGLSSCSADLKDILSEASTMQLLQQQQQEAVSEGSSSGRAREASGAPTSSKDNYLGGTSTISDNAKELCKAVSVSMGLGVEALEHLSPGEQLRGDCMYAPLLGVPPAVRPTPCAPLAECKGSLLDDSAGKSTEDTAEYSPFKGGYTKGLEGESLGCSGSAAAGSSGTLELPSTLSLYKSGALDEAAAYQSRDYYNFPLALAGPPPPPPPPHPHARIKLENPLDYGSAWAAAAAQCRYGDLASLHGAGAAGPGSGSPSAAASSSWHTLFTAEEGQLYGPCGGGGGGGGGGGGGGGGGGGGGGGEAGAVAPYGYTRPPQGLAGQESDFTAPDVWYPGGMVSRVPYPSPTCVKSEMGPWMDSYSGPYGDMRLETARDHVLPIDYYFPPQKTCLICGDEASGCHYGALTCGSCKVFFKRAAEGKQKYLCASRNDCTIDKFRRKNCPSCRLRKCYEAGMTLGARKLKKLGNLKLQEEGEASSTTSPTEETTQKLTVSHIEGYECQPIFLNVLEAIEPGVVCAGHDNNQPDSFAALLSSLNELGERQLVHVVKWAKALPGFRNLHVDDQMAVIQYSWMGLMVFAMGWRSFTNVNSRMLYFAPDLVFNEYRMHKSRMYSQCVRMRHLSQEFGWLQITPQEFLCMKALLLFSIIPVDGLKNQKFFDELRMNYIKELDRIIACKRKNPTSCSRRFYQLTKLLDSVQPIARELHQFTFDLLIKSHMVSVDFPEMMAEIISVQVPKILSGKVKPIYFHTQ
Description: AR antagonism assay: To evaluate AR antagonist activity, test compound was added to the assay plate (top dose 10 μM, 3 fold serial dilution, 10 point dose response). HEK293 cells stably expressing the full-length androgen receptor were seeded at a density of 20000 cells/well in the assay plate. The assay plate was then incubated at room temperature for 10 minutes and at 37° C., 5% CO2 for 20 minutes. Testosterone is added to the assay plate at 1 nM final concentration and the assay plate incubated at 37° C., 5% CO2 for 20 h. After the incubation period, Steady-glo was added to the assay plate and mixed at room temperature for 20 minutes on an orbital shaker, before reading out on the EnVision plate reader.

[2] = target: T2, AR (cytosol from LnCaP cells) (Homo sapiens, UniProt P10275, T878A); assay: AR binding assay; details: 3H-R1881 1 nM, 4° C. 24 hrs
T2 construct: endogenous in cells; host or cells: LNCaP cytosol
T2 sequence (P10275 1-920 T878A): T1 sequence (P10275 1-920) with T878A
Description: AR binding assay: To assess AR binding, test compound (top dose 10 μM, 4 fold serial dilution, 8 point dose response) and control (progesterone) were transferred to the assay plate. Cytosol from LnCaP cells was added to the plate, followed by addition of radiolabeled ^3H-R1881 at a final concentration of 1 nM. The plate was sealed, and the reaction was incubated at 300 rpm at 4° C. for 24 hrs. Radioligand absorption buffer (10 mM Tris-HCl, pH 7.4; 1.5 mM EDTA; 1 mM DTT; 0.25% charcoal; 0.0025% dextran) was then added to the plate, mixed, and incubated at 4° C. for 15 minutes. The plate was then centrifuged at 3000 rpm for 30 minutes at 4° C. The supernatant was transferred to the scint-tube and Tri-carb was used for scintillation counting.

22Rv1 cells = assay: Cell viability assay 22Rv1; type: cell-based; details: Homo sapiens, 22Rv1, 144 h; 6 days, CellTiterGlo
Description: (§1) Cell viability assay: LNCap, 22Rv1, MCF7, MDAMB361, T47D, and IEC6 cells were seeded at a density of 500-2000 cells/well in 96 well plates, and a ‘T0’ (timepoint 0) was included along with the assay plate. The plates were then incubated at 37° C., 5% CO2 in a cell culture incubator overnight. On the next day, the ‘T0’ plate was assayed using CellTiterGlo (Promega, Inc) according to the manufacturer's instructions. The appropriate compounds were diluted in DMSO and added to the assay plate (final DMSO concentration of 0.1-0.2%) on the next day. The assay plates were incubated for 6 days at 37° C., 5% CO2. After the incubation period, the plates were assayed using CellTiterGlo (Promega, Inc) according to the manufacturer's instructions and luminescence was read on the EnVision plate reader. Inhibition of the tested compounds was determined by the following formula: Inhibition rate (%)=(1−(RLU compound−RLU day0)/(RLU control−RLU day0))*100%. GraphPadPrism was used to analyze the data and determine GI50/IC50 values.

IEC6 cells = assay: Cell viability assay IEC6; type: cell-based; details: Rattus norvegicus, IEC-6, 144 h; 6 days, CellTiterGlo
Description: as §1

LNCap cells = assay: Cell viability assay LNCap; type: cell-based; details: Homo sapiens, 144 h, 6 days, CellTiterGlo
Description: as §1

MDAMB361 cells = assay: Cell viability assay MDAMB361; type: cell-based; details: Homo sapiens, MDA-MB-361, 144 h; 6 days, CellTiterGlo
Description: as §1

[3] = target: T3, ER (SK-BR-3 cells transfected with ERE plasmid and ER) (Homo sapiens, UniProt P03372); assay: ER antagonism assay; type: cell-based; details: 100 nM β-Estradiol, 24 h, Dual-glo luciferase
T3 construct: expressed in transfected cells; host or cells: SK-BR-3 (transient, lipofectamine 3000)
T3 sequence (P03372 1-595): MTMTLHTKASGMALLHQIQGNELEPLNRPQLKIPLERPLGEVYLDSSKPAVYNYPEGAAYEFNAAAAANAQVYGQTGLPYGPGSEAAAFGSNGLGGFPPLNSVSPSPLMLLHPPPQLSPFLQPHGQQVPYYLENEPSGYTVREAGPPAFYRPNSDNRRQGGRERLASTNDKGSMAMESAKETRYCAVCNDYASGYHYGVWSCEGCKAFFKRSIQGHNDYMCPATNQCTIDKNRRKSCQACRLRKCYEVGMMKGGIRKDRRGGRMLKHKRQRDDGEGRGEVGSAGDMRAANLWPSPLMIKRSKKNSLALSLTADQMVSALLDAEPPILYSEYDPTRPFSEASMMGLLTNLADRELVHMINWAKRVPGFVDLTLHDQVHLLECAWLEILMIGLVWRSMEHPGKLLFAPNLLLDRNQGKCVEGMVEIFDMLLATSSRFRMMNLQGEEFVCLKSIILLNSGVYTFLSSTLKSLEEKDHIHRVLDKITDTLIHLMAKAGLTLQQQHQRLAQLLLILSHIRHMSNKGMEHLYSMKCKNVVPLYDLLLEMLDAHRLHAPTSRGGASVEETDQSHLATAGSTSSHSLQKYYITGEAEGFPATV
Description: ER antagonism assay: To evaluate ER antagonist activity, SK-BR-3 cells were seeded at a density of 30000 cells/well in the assay plate. The assay plate was then incubated at 37° C., 5% CO2 for 24 h. A mixture of ERE plasmid and ER in opti-MEM media was incubated with lipofectamine 3000 in Opti-MEM media and incubated at room temperature for 15 minutes. 10 μL of this transfection mix was added to each well of the assay plate and the assay plate was incubated at 37° C., 5% CO2 for 24 h. 100 nM β-Estradiol in 10 μL medium or 10 μL medium (control wells) was added to corresponding wells of assay plate and incubated at 37° C. 5% CO2 for 24 h. After the incubation period, 50 μL of Dual-glo luciferase reagent was added to the assay plate and mixed at room temperature for 20 mins on an orbital shaker, before reading out on the EnVision plate reader. 50 μL of Stop & Glo reagent was added to assay plate, mixed at room temperature for 20 minutes, and read on the Envision plate reader.

MCF7 cells = assay: Cell viability assay MCF7; type: cell-based; details: Homo sapiens, MCF7, 144 h; 6 days, CellTiterGlo
Description: as §1

`CCc1cc2ncc(CN3CCN(CC4CCN(c5ccc(C(=O)N[C@H]6CC[C@H](Oc7ccc(C#N)c(Cl)c7C)CC6)nn5)CC4)CC3)cc2[nH]c1=O` [Compound 66, N-((1r,4r)-4-(3-Chloro-4-cyano-2-methylphenoxy)cyclohexyl)-6-(4-((4-((7-ethyl-6-oxo-5,6-dihydro-1,5-naphthyridin-3-yl)methyl)piperazin-1-yl)methyl)piperidin-1-yl)pyridazine-3-carboxamide] showed an IC50 [1] of over 10 µM, an IC50 [2] of under 0.1 µM and a GI50 (22Rv1 cells) of at most 0.5 µM. The IC50 (IEC6 cells) was 0.5 to 5 µM and the GI50 (LNCap cells) was at most 0.5 µM.
In the case of `CCc1cc2ncc(CN3CCN(CC4CCN(c5ccc(C(=O)N[C@H]6CC[C@H](N(C)c7ccc(C#N)c(Cl)c7)CC6)nn5)CC4)CC3)cc2[nH]c1=O` [Compound 67, N-((1R,4R)-4-((3-Chloro-4-cyanophenyl)(methyl)amino)cyclohexyl)-6-(4-((4-((7-ethyl-6-oxo-5,6-dihydro-1,5-naphthyridin-3-yl)methyl)piperazin-1-yl)methyl)piperidin-1-yl)pyridazine-3-carboxamide], the IC50 [1] is reported as over 10 µM, the IC50 [2] is reported as under 0.1 µM and the GI50 (22Rv1 cells) is reported as at most 0.5 µM. The IC50 (IEC6 cells) was over 30 µM and the GI50 (LNCap cells) was at most 0.5 µM.
For `CCc1cc2ncc(CN3CCN(Cc4ccc(-c5nnc([C@H](Nc6ccc(C#N)c(Cl)c6)[C@H](C)O)o5)cc4)CC3)cc2[nH]c1=O` [Compound 68, 2-Chloro-4-(((1R,2S)-1-(5-(4-((4-((7-ethyl-6-oxo-5,6-dihydro-1,5-naphthyridin-3-yl)methyl)piperazin-1-yl)methyl)phenyl)-1,3,4-oxadiazol-2-yl)-2-hydroxypropyl)amino)benzonitrile], the IC50 [1] was over 10 µM, the IC50 [2] was over 10 µM and the GI50 (22Rv1 cells) was 5 to 30 µM. For the same molecule, the IC50 (IEC6 cells) was over 30 µM and the GI50 (LNCap cells) was 0.5 to 5 µM.
Work on `CCc1cc2ncc(CN3CCN(Cc4ccc(-c5nnc([C@H](Nc6ccc(C#N)c(Cl)c6C)[C@H](C)O)o5)cc4)CC3)cc2[nH]c1=O` [Compound 69, 2-Chloro-4-(((1R,2S)-1-(5-(4-((4-((7-ethyl-6-oxo-5,6-dihydro-1,5-naphthyridin-3-yl)methyl)piperazin-1-yl)methyl)phenyl)-1,3,4-oxadiazol-2-yl)-2-hydroxypropyl)amino)-3-methylbenzonitrile] yielded an IC50 [1] of over 10 µM, an IC50 [2] of over 10 µM and a GI50 (22Rv1 cells) of 5 to 30 µM. The IC50 (IEC6 cells) was over 30 µM and the GI50 (LNCap cells) was 0.5 to 5 µM.
`CCc1cc2ncc(CN3CCN(C(=O)[C@H]4CC[C@H](COc5cc(F)c([C@@H]6c7[nH]c8ccccc8c7C[C@@H](C)N6CC(C)(C)F)c(F)c5)CC4)CC3)cc2[nH]c1=O` [Compound 70, 7-((4-((1r,4r)-4-((3,5-Difluoro-4-((1R,3R)-2-(2-fluoro-2-methylpropyl)-3-methyl-2,3,4,9-tetrahydro-1H-pyrido[3,4-b]indol-1-yl)phenoxy)methyl)cyclohexane-1-carbonyl)piperazin-1-yl)methyl)-3-ethyl-1,5-naphthyridin-2(1H)-one] was tested, and the GI50 (MDAMB361 cells) was at most 0.5 µM, the IC50 [3] was at most 0.1 µM and the GI50 (MCF7 cells) was 5 to 30 µM. It also gave an IC50 (IEC6 cells) of over 30 µM.
